PMC10553838, “Functional and structural insights into the multi-step activation and catalytic mechanism of bacterial ExoY nucleotidyl cyclase toxins bound to actin-profilin” (PLOS Pathogens, 2023)

Key:
Assay type in all cases: biochemical
[1] = target: T1, Vn-ExoY (Vn-ExoY^455-863) activated by G-actin-ATP/ADP-LatB (Vibrio nigripulchritudo, UniProt A0A9P1NJI6); experiment: cCMP synthesis, [alpha-33P]NTP assay; conditions: 2 mM CTP, MgCl2, 6 uM LatB-Mg-G-actin, pH 8.0, 30 °C; labelled compound
T1 construct: gene VIBNI_0210; ExoY effector domain of MARTX toxin, residues 3455-3863, N-terminal twin-Strep-tag with PreScission site (cleaved for crystals), E. coli BL21(DE3); with rabbit skeletal muscle G-actin; with Actin, alpha skeletal muscle

[2] = target: T2, Pa-ExoY activated by F-actin (Pseudomonas aeruginosa, UniProt O85345); experiment: cGMP synthesis, [alpha-33P]NTP assay; conditions: 2 mM GTP, MgCl2, 3 uM Mg-F-actin, pH 8.0, 30 °C; labelled compound
T2 construct: residues 20-378, N-terminal twin-Strep-tag (ST2), E. coli BL21(DE3), 44 kDa monomer; with Actin, alpha skeletal muscle

[3] = target: T2, Pa-ExoY activated by F-actin; experiment: cUMP synthesis, [alpha-33P]NTP assay; conditions: 2 mM UTP, MgCl2, 6 uM Mg-F-actin, pH 8.0, 30 °C; labelled compound

## Nc1ccn([C@@H]2O[C@H](COP(=O)(O)OP(=O)(O)OP(=O)(O)O)[C@@H](O)[C@H]2O)c(=O)n1 [CTP]
[1]
  cCMP synthesis, [alpha-33P]NTP assay: cCMP synthesis catalysed by wild-type or mutants of Vn-ExoY activated by G-actin

## Nc1nc2c(ncn2[C@@H]2O[C@H](COP(=O)(O)OP(=O)(O)OP(=O)(O)O)[C@@H](O)[C@H]2O)c(=O)[nH]1 [GTP]
[2]
  cGMP synthesis, [alpha-33P]NTP assay: cGMP synthesis catalysed by wild-type or mutants of Pa-ExoY activated by F-actin

## O=c1ccn([C@@H]2O[C@H](COP(=O)(O)OP(=O)(O)OP(=O)(O)O)[C@@H](O)[C@H]2O)c(=O)[nH]1 [UTP]
[3]
  cUMP synthesis, [alpha-33P]NTP assay: cCMP and cUMP synthesis catalysed by wild-type or mutants of Pa-ExoY activated by F-actin
